Source: US7473682B2, “Angiogenic peptides and uses thereof” (Ramot at Tel Aviv University Ltd., priority 2003, dated 2009)

Assays:
HUVECs (ECs) = experiment: Proliferation of ECs (HUVECs) in the presence of synthetic peptides ([^3H]-Thymidine uptake); format: cell-based, human; details: for Highest proliferative response of ECs, fold increase / [^3H]-Thymidine uptake in ECs: normoxia; for [^3H]-Thymidine uptake in ECs: 0.05-100 ng/ml; for [^3H]-Thymidine uptake in ECs / [^3H]-Thymidine uptake / proliferation of ECs under and following hypoxia: 24 hours
Procedure: Proliferation of ECs in the presence of synthetic peptides—ECs were incubated in the presence of EBM-2 medium containing supplements (Cambrex BioWhittaker Cell Biology Products, Walkersville, USA). Cells were passaged every 3 days by harvesting cells with 0.25% […] (Biological Industries) and re-plating the cells at a concentration of 10^4 cells per a 25 cm^2 flask. ECs from passage 3 were used for proliferation experiments.
ECs (12×10^3 cells/well) were seeded on 24-well plates in EBM-2 medium containing supplements. Following a 24-hours incubation, cells were subjected to 24 hours of starvation in supplements-free medium (SFM). Synthetic peptides (SP, LT, TR, and VL) were each added at concentrations of 0.05, 0.1, 1, 10, or 100 ng/ml for 24 hours. For a proliferation assay, 2 μCi/well of [^3H]-Thymidine (SIGMA, Rehovot, Israel) were added for a 6-hour incubation, following which the plates were washed 3 times with PBS. For cell lysis, the plates were incubated for 15 minutes at 37° C. with 300 μl/well of 0.5 M NaOH. Subsequently, cell lysates were transferred to scintillation vials containing 2 ml of scintillation liquid (Ultima Gold, Packard Bioscience, Meriden, Conn., USA) and counted (cpm/min) in a β counter (Scintillation β Counter 1600 TR, Packard A Camberra Company, Meriden, Conn., USA).
Synthetic peptides induced proliferation or migration after and under hypoxia treatment—Cell proliferation or migration assays were performed as described in Example 3, hereinabove, except that cells were divided to 3 groups: control cells, cells after exposure to hypoxia conditions or cells proliferating under hypoxia conditions. For cell proliferation assays, ECs were incubated with QF, LT and SP and MVECs were incubated with LT, SP, and YR. For cell migration assays, ECs were incubated with EBM-2 and MVECs were incubated with EBM-MV media.

MVECs = experiment: MVEC migration assay with synthetic peptides; format: cell-based; details: 5 hours; for Increase in MVECs migration, peptides as chemoattractants: 10 ng/ml; for MVECs migration, direct activation by peptides: 1 ng/ml
Procedure: MVEC migration was evaluated as described above except that MVECs from passage 3 were incubated in EBM-MV SFM. […] The presence of migratory cells was detected using the fluorescent ELISA reader at 480/520 nm (Fluostar BMG Lab Teck) as described in Example 2, hereinabove. […]

VEGF-A = experiment: Real time PCR gene expression in MVECs, VEGF-A; format: cell-based; design: key: increased (+); non-increased (−); details: 1 ng/ml peptide
Procedure: (§1) Real Time PCR—MVECs from passage 3 were incubated for 24 hours in EBM-MV supplement-free medium (starving media). Following starvation, 1 ng/ml of synthetic peptides LT, QF, SP, TR, YR, and VL and 10 ng/ml of VEGF were added to the plates. Following 1.5 or 6 hours of incubation, total RNA was extracted using TRIsol reagent (Invitrogen Life Technologies, Carlsbad Calif., USA) and 0.8 μg of the extracted RNA was used as a template for reverse transcription (Invitrogen) using random primers (SuperScript III First-Strand Synthesis System for RT-PCR (hvitrogen, Carlsbad Calif., USA) according to the manufacturer's instructions. Resulting cDNAs were subjected to real time PCR amplification using the ABI prism 7000 Sequence Detection System (Applied Biosystems, Foster City, Calif., USA). Oligonucleotide primers were designed using Primer Express Software (Applied Biosystems, Foster City, Calif., USA) according the translated region of VEGF-A (Accession No:NM_003376), VEGF-C (Accession No:NM_005429), KDR (Accession No:NM_002253), FLT-1 (Accession No:NM_002019), HIF-α (Accession No:HSU22431), and GAPDH (Accession No:NM_002046) and are listed in Table 6, hereinbelow. Briefly, a reaction mixture of 20 μl consisting of DDW, oligonucleotide primers (500 nM), cDNA (3 μl), and SYBR Green PCR master kit (Applied Biosystems, Foster City, Calif., USA) was subjected to an amplification program of 15 seconds at 95° C., and 60 seconds at 60° C. for 40 cycles. Results were analyzed using the Sequence Detector Software Version 1 (Applied Biosystenis).
(§2) Peptides effect on gene expression in MVECs—The effect of the synthetic peptides on the expression in MVECs of selected genes (VEGF-A, VEGF-C, KDR, FLT-1 and HIF-1α) related to the VEGF pathway (a major pathway that participated in angiogenic process) was tested. Synthetic peptides were added at 1 ng/ml for 1.5 and 6 hours. After incubation with peptide, RNA was extracted from MVECs and Real Time PCR was performed. Gene expression was calculated as peptide/control (cells without peptide treatment) ratio.

FLT-1 = experiment: Real time PCR gene expression in MVECs, FLT-1; format: cell-based; design: key: increased (+); non-increased (−); details: 1 ng/ml peptide
Procedure: as §1, §2

KDR = experiment: Real time PCR gene expression in MVECs, KDR; format: cell-based; design: key: increased (+); non-increased (−); details: 1 ng/ml peptide
Procedure: as §1, §2

[1] = system: ears of nude mice and Balb/C mice; experiment: In vivo angiogenesis in a mouse-ear model; details: for Number of blood vessels in the ears of injected mice (photographs): 10 μg peptide, subcutaneous injection into ear; for Number of blood vessels: 10 μg/ear, 5 days after inoculation; for Peptide/PBS = ratio between the No. of blood vessels in the peptide-injected ear and in the PBS-injected ear: mouse ears, contralateral ear PBS
Procedure: In Wivo angiogenesis in a mouse-ear model—Ear angiogenesis studies were a modification of an approach described previously (Pettersson, 2000). […] Contralateral ears were injected only with PBS. […] Two days after peptide inoculation, angiogenic effect of peptides could be observed.
Histological sections—Histological sections of the mouse-ears injected with the angiogenic peptides were performed by fixing tissues in 4% buffered formalin. Sections were embedded in paraffin blocks sectioned in 4 μm thick layers and stained with hematoxolin-eosin.

mouse ischemic hind limb [2] = experiment: Mouse ischemic hind limb model, physiological observations (ladder climbing); format: in vivo; design: key: 1 = walk and climb ... 4 = walk with difficulty, cannot climb; details: mean score of 10 mice, 10 μg; for Physiological score (ability to climb a ladder) Day 1: 1 = walk and climb ... 4 = walk with difficulties and cannot climb, day 1 post operation; for Physiological score (ability to climb a ladder) Day 4 / Physiological score (ability to climb a ladder) Day 7 / Physiological score (ability to climb a ladder) Day 10: scale 1-4; for Physiological score (ability to climb a ladder) Day 4: day 4 post operation; for Physiological score (ability to climb a ladder) Day 7: day 7 post operation; for Physiological score (ability to climb a ladder) Day 10: day 10 post operation
Procedure: (§3) Mouse ischemic hind limb model—Ischemia was created in the mouse left hind limb by ligation of the femoral artery. The right hind limb served as control. A day after the operation each of the peptides was injected into one site close to the ligation and one site distal to the ligation. Each mouse was treated with each of the peptides in a total amount of 10 μg.
Physiological observations—Ischemic mice were evaluated for their ability to climb a ladder on day 1, 4, 7, and 10-post operation. The scoring system was as follows: 1—walk and climb; 2—walk and climb with some difficulty, 3—walk and cannot climb the ladder; 4—walk with difficulties and cannot climb the ladder.

mouse ischemic hind limb [3] = experiment: Mouse ischemic hind limb model, blood perfusion (Laser Doppler Imager); format: in vivo; details: 14 and 19 days following peptide injection; for The blood perfusion ratio (in percentages) of the ischemic vs. control limbs, Mean: 10 μg
Procedure: as §3
Blood perfusion in ischemic mice—The percent of blood perfusion was measured using a Laser Doppler Imager (PeriMed, Sweden) at 14 and 19 days after peptides injections. The average percent perfusion of each limb was computed and expressed as the ischemic (left)/control (right) blood perfusion ratio.

Row | Sequence | Increase of EC proliferation after hypoxia (HUVECs (ECs); 10 ng/ml) | Highest proliferative response of ECs, fold increase (HUVECs (ECs); 10 ng/ml) | [^3H]-Thymidine uptake in ECs (HUVECs (ECs)) | [^3H]-Thymidine uptake / proliferation of ECs under and following hypoxia (HUVECs (ECs)) | Increase in MVECs migration, peptides as chemoattractants (MVECs) | VEGF-A Expression after 1.5 hours (VEGF-A) | FLT-1 Expression after 1.5 hours (FLT-1) | KDR Expression after 1.5 hours (KDR) | Number of blood vessels in the ears of injected mice (photographs) [1] | Number of blood vessels [1] | Peptide/PBS = ratio between the No. of blood vessels in the peptide-injected ear and in the PBS-injected ear [1] | Physiological score (ability to climb a ladder) Day 1 (mouse ischemic hind limb [2]) | Physiological score (ability to climb a ladder) Day 4 (mouse ischemic hind limb [2]) | Physiological score (ability to climb a ladder) Day 7 (mouse ischemic hind limb [2]) | Physiological score (ability to climb a ladder) Day 10 (mouse ischemic hind limb [2]) | The blood perfusion ratio (in percentages) of the ischemic vs. control limbs, Mean (mouse ischemic hind limb [3]) | MVECs migration, direct activation by peptides (MVECs) | VEGF-A Expression after 6 hours (VEGF-A) | FLT-1 Expression after 6 hours (FLT-1) | KDR Expression after 6 hours (KDR) | further results
1 | LLADTTHHRPWT (Phage displayed peptide) [LT] | 3.5 fold | 1.7 fold | significant dose-dependent increase | significant dose-dependent increase | 3.5 fold | + | + | − | increased number of blood vessels | 18 | 3 | 3.07 | 2.25 | 1.6 | 1.2 | 78.275 percentages |  |  |  |  | Increase of EC proliferation under hypoxia (HUVECs (ECs); under hypoxia, 1 ng/ml): 1.7 fold
2 | QPWLEQAYYSTF (Phage displayed peptide) [QF] |  |  |  | did not show increase in proliferation | 2.4 fold | + | + | + | increased number of blood vessels | 21 | 0.9 | 2.83 | 2 | 1.6 | 1.2 | 112.222 percentages | 2.3 folds | − | − |  | Percent of blood perfusion ratio, ischemic/control limb (significance) (mouse ischemic hind limb [3]): significant increase
3 | SAHGTSTGVPWP (Phage displayed peptide) | 2 fold | 1.6 fold | significant dose-dependent increase | significant dose-dependent increase | 2 fold | + | + | + | increased number of blood vessels | 15 | 1 | 2.85 | 2.25 | 1.75 | 1.6 | 84.478 percentages | 2.1 folds |  |  |  | 
4 | TLPWLEESYWRP (Phage displayed peptide) [TR] |  | 1.8 fold | significant dose-dependent increase |  | 2 fold | + | + |  |  | 15 | 5.5 | 3.05 | 2.5 | 1.6 | 1.4 | 86.006 percentages | 2.6 folds | − |  | + | Vascularization of mouse ear, histology sections ([1]; 10 μg, compared to control): large blood vessel formation and neovascularization
5 | VPWMEPAYQRFL (Phage displayed peptide) [VL] |  |  | significant dose-dependent increase |  | 2 fold | + | + |  |  | 14 | 5.6 | 2.75 | 2 | 1.6 | 1.4 | 95.560 percentages |  | + |  | + | Highest proliferative response of ECs, fold increase (HUVECs (ECs); 1 ng/ml): 1.8 fold
6 | YPHIDSLGHWRR (Phage displayed peptide) [YR] |  |  |  |  | 2.4 fold | + | + | + | increased number of blood vessels | 11 | 7.6 | 2.75 | 2.5 | 1.4 | 1 | 104.349 percentages | 1.8 folds | − | − | − | Percent of blood perfusion ratio, ischemic/control limb (significance) (mouse ischemic hind limb [3]): significant increase
